pIC50: −log10 of the molar value.

Experimental findings from article PMC13258496, “Synthesis of Methoxylated Benzoxanthones as Drug Metabolites of Antischistosomal Schistodiones—A Limited Environmental Risk” (Molecules, 2026) are described below.

For this assay, the system named is S. aureus. Nature of the assay: Primary antibacterial screening. It counts as cell-based. Particulars: Staphylococcus aureus. Here is the method: The cytotoxicity of the same compounds was evaluated against human fibroblasts (hMRC-5) and mouse macrophages (PMM). All assays were carried out with parent benzylMD (PD, SD-A2′,5′, SD-A3′,5′) and control drug references.
The primary in vitro evaluation of test compounds at LMPH is performed against a broad panel of pathogens to allow proper evaluation of selectivity. Compound stock solutions are prepared in 100% DMSO at 20 mM. The compounds are serially pre-diluted (two-fold or four-fold) in DMSO followed by a further (intermediate) dilution in demineralized water to assure a final in-test DMSO concentration of <1%.

The molecule `CC[C@H]1OC(=O)[C@H](C)[C@@H](O[C@H]2C[C@@](C)(OC)[C@@H](O)[C@H](C)O2)[C@H](C)[C@@H](O[C@@H]2O[C@H](C)C[C@H](N(C)C)[C@H]2O)[C@](C)(O)C[C@@H](C)C(=O)[C@H](C)[C@@H](O)[C@]1(C)O` [Erythromycin] showed a negative logarithm of the IC50 (pIC50) of 4.95.
